Activity calls are given as the source filed them. The calls are words filed in the database; no cut-off is given here.

Results on 4 compounds are retold here after ChEMBL document CHEMBL1150689, “New dihydroalkylhexenones from Lannea edulis” (J Nat Prod, 2003).

The nature of the assay: DPPH radical scavenging activity at 10 ug after 30 mins by TLC. The format is functional. A general note: DPPH is a stable violet radical that fades when it is reduced.
As for `CC/C=C/CCCCCCCCCCCCCc1cccc(O)c1`, the result was Active.

On to `CC/C=C/CCCCCCCCCCCCCCC[C@@]1(O)CC(=O)C=C[C@@H]1O`, for which the outcome was inactive.

For the compound `CC/C=C/CCCCCCCCCCCCCCC[C@]1(O)CC(=O)C=C[C@@H]1O`, the outcome was inactive.

Consider `CC/C=C/CCCCCCCCCCCCC[C@@]1(O)CC(=O)C=C[C@@H]1O`, for which the outcome was inactive.
